# ChEMBL document CHEMBL1201862, “PubChem BioAssay data set” (2004)
# Active and inactive are the calls of the source.
# Columns and labels:
# [1] = target: T1, Tyrosine-protein phosphatase non-receptor type 7 (Homo sapiens, UniProt P35236); assay: inhibitors of human HePTP phosphatase, […], biochemical, absorbance, leukemia target (AID 521); assay type: functional
# T1 sequence (P35236 whole entry): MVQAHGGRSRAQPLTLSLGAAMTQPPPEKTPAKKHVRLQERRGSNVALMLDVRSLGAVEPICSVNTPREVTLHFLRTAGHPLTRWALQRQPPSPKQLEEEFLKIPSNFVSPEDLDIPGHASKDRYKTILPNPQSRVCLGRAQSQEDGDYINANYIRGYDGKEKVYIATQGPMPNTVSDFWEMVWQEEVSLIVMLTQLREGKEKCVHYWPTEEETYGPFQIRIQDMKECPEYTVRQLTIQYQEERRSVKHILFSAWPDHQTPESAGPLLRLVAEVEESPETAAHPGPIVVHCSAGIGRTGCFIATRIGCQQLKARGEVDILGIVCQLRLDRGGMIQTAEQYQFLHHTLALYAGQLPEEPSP
# Bcl-2-like protein 10 = target: T2, Bcl-2-like protein 10 (Homo sapiens, UniProt Q9HD36); assay: displacers of TR3 peptide from Bcl-B, primary screen, selectivity assay for Bfl-1 inhibitor project, biochemical, fluorescence polarization, FITC-TR3 peptide (AID 748);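 further: fluorescence polarization from a fluorescein-labelled TR3 peptide binding purified Bcl-B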
# T2 sequence (Q9HD36 whole entry): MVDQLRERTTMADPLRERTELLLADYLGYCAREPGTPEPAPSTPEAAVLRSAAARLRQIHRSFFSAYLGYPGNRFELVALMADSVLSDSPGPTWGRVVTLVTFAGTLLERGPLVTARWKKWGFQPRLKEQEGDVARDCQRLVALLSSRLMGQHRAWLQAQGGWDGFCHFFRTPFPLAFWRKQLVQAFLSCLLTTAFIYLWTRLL
# Bcl-2-related protein A1 = target: T3, Bcl-2-related protein A1 (Mus musculus, UniProt Q07440); assay: Bfl-1 inhibitors, primary screen, biochemical, fluorescence polarization, FITC-Bid, mouse (AID 432)
# T3 sequence (Q07440 whole entry): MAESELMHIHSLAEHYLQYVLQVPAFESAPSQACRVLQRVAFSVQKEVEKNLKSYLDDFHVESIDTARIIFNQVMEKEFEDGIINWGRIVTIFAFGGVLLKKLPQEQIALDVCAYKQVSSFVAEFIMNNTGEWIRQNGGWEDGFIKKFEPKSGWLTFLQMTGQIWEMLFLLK
# [2] = target: T4, Dual specificity protein phosphatase 6 (Rattus norvegicus, UniProt Q64346); assay: MKP-3 phosphatase inhibitors, primary screen, biochemical, rat enzyme, in vitro (AID 425)
# T4 sequence (Q64346 whole entry): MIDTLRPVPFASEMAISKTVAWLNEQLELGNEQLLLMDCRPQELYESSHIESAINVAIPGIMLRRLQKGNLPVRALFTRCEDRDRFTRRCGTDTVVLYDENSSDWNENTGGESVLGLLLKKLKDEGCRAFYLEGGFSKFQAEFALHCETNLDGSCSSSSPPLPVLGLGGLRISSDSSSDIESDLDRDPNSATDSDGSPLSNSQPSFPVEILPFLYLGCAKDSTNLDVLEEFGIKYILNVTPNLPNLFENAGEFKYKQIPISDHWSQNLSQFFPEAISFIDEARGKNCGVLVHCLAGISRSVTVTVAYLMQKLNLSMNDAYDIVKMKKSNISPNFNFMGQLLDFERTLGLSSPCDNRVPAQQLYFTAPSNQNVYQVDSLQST
# [3] = target: DNA dC->dU-editing enzyme APOBEC-3A (Homo sapiens, UniProt P31941); assay: Dose Response confirmation of small molecule APOBEC3A DNA Deaminase Inhibitors via a fluorescence-based single-stranded DNA deaminase assay. [Related pubchem assays (depositor defined):AID493011, AID493024]; assay type: functional
# [4] = target: DNA dC->dU-editing enzyme APOBEC-3G (Homo sapiens, UniProt Q9HC16); assay type: functional;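 further: Dose-response counterscreen measuring inhibition of APOBEC3G DNA deaminase activity, run while confirming APOBEC3A inhibitors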
# Chain of DNA dC->dU-editing enzyme APOBEC-3G (Q9HC16 whole entry): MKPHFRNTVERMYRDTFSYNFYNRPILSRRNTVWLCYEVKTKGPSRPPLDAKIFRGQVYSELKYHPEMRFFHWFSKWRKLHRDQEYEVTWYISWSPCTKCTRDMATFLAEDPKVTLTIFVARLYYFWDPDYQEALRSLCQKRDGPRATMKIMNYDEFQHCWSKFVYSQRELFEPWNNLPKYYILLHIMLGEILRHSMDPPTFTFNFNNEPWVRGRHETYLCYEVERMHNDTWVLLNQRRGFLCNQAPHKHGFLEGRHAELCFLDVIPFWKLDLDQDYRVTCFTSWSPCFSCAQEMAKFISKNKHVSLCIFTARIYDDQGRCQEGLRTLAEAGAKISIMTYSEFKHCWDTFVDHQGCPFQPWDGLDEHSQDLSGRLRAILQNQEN
# [5] = Single fluorophore orthopox expression reporter, late gene expression Measured in Cell-Based and Microorganism Combination System Using Plate Reader - 2142-08_Inhibitor_Dose_DryPowder_Activity.; assay type: functional
# [6] = A549 cell cytotoxicity, dose response, CellTiter-Glo luminescence, dry powder, set 17 (AID 1117284); assay type: functional, cell-based
# [7] = inhibitors of orthopox intermediate gene expression, dose response, cell-based, single fluorophore reporter, dry powder (AID 1117271); assay type: functional
# [8] = A Cell Based Secondary Assay To Explore Cytotoxicity of Compounds that Sensitize Mycobacterium Tuberculosis to Beta-Lactam Antibiotics.; assay type: functional
# [9] = P. falciparum 3D7-ScDHODH growth inhibitors, dose response, SYBR Green, dry powder samples (AID 1159570); assay type: functional, cell-based;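 further: parasite growth measured after 72 hours of compound exposure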
# [10] = HepG2 cell cytotoxicity, dose response, cytotoxicity control, plate reader, dry powder samples (AID 1159569); assay type: functional, cell-based;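 further: inhibitor potency with signal falling toward the positive control level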
# [11] = P. falciparum Dd2 growth inhibitors, dose response, SYBR Green, cherry-picked samples (AID 1159567); assay type: functional, cell-based
# [12] = P. falciparum Dd2 growth inhibitors, dose response, SYBR Green, dry powder samples (AID 1159566); assay type: functional, cell-based;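 further: potency for growth inhibition with lower SYBR green DNA signal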
# [13] = Plasmodium falciparum Dd2 Sybr green parasite growth Measured in Cell-Based and Microorganism Combination System Using Plate Reader - 2153-01_Inhibitor_Dose_DryPowder_Activity_Set3.; assay type: functional
# [14] = P. falciparum ATP4 D1247Y mutant growth inhibitors, dose response, NITD609-resistant line, SYBR Green, dry powder (AID 1159571); assay type: functional, cell-based;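 further: parasites synchronized at ring stage by sorbitol before testing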
# [15] = inhibitors of firefly luciferase expression or activity, dose response, H4 neuroglioma cells, luminescence (AID 1990); assay type: functional, cell-based
# [16] = Luminescence Cell-Based Dose Response HTS to Identify Inhibitors of 5'UTR Stem-Loop Driven Prion Protein mRNA Translation in H4 Neuroglioblastoma Cells. [Related pubchem assays: 1827 (Project Summary), 1813 (Primary HTS)]; assay type: functional
# Vero = assay: host cell cytotoxicity of antiviral hits, dose response, cytotoxicity control for West Nile virus antiviral project, secondary assay (AID 1650); assay type: functional; settings: Chlorocebus sabaeus
# [17] = inhibitors of SNCA 5'UTR-driven reporter translation, confirmation, H4 neuroglioma cells, luminescence (AID 1988); assay type: functional, cell-based
# [18] = Vero cell cytotoxicity, dose response, cytotoxicity control for Vif-APOBEC3G degradation inhibitor project, Vero cells (AID 1117358); assay type: functional; settings: Human immunodeficiency virus 1, Vero
# cells [19] = assay: cells
# [20] = target: Peroxisome proliferator-activated receptor gamma/Nuclear receptor corepressor 2 (Homo sapiens, UniProt P37231+Q9Y618); assay: Counterscreen for NR2E3 inverse agonists: TR-FRET-based biochemical high throughput dose response assay to identify inverse agonists of the interaction between peroxisome proliferator-activated receptor gamma (PPARg) and nuclear receptor co-repressor 2 (NCOR2).; assay type: functional
# Chain of Peroxisome proliferator-activated receptor gamma/Nuclear receptor corepressor 2 (P37231 whole entry): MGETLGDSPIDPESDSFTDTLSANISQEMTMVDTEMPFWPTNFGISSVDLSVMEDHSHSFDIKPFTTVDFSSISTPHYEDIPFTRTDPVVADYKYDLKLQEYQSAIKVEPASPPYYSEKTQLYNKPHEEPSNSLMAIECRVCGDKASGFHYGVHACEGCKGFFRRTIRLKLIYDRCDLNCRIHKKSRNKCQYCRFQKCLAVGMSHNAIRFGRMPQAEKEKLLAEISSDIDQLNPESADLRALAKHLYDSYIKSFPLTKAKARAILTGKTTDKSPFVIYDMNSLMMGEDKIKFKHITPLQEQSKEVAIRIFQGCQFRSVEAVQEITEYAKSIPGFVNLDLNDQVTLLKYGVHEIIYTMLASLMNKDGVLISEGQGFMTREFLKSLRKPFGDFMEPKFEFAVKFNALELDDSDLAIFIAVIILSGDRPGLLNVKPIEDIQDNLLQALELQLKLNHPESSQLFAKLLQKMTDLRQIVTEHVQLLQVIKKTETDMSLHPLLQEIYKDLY
# Chain of Peroxisome proliferator-activated receptor gamma/Nuclear receptor corepressor 2 (Q9Y618 whole entry): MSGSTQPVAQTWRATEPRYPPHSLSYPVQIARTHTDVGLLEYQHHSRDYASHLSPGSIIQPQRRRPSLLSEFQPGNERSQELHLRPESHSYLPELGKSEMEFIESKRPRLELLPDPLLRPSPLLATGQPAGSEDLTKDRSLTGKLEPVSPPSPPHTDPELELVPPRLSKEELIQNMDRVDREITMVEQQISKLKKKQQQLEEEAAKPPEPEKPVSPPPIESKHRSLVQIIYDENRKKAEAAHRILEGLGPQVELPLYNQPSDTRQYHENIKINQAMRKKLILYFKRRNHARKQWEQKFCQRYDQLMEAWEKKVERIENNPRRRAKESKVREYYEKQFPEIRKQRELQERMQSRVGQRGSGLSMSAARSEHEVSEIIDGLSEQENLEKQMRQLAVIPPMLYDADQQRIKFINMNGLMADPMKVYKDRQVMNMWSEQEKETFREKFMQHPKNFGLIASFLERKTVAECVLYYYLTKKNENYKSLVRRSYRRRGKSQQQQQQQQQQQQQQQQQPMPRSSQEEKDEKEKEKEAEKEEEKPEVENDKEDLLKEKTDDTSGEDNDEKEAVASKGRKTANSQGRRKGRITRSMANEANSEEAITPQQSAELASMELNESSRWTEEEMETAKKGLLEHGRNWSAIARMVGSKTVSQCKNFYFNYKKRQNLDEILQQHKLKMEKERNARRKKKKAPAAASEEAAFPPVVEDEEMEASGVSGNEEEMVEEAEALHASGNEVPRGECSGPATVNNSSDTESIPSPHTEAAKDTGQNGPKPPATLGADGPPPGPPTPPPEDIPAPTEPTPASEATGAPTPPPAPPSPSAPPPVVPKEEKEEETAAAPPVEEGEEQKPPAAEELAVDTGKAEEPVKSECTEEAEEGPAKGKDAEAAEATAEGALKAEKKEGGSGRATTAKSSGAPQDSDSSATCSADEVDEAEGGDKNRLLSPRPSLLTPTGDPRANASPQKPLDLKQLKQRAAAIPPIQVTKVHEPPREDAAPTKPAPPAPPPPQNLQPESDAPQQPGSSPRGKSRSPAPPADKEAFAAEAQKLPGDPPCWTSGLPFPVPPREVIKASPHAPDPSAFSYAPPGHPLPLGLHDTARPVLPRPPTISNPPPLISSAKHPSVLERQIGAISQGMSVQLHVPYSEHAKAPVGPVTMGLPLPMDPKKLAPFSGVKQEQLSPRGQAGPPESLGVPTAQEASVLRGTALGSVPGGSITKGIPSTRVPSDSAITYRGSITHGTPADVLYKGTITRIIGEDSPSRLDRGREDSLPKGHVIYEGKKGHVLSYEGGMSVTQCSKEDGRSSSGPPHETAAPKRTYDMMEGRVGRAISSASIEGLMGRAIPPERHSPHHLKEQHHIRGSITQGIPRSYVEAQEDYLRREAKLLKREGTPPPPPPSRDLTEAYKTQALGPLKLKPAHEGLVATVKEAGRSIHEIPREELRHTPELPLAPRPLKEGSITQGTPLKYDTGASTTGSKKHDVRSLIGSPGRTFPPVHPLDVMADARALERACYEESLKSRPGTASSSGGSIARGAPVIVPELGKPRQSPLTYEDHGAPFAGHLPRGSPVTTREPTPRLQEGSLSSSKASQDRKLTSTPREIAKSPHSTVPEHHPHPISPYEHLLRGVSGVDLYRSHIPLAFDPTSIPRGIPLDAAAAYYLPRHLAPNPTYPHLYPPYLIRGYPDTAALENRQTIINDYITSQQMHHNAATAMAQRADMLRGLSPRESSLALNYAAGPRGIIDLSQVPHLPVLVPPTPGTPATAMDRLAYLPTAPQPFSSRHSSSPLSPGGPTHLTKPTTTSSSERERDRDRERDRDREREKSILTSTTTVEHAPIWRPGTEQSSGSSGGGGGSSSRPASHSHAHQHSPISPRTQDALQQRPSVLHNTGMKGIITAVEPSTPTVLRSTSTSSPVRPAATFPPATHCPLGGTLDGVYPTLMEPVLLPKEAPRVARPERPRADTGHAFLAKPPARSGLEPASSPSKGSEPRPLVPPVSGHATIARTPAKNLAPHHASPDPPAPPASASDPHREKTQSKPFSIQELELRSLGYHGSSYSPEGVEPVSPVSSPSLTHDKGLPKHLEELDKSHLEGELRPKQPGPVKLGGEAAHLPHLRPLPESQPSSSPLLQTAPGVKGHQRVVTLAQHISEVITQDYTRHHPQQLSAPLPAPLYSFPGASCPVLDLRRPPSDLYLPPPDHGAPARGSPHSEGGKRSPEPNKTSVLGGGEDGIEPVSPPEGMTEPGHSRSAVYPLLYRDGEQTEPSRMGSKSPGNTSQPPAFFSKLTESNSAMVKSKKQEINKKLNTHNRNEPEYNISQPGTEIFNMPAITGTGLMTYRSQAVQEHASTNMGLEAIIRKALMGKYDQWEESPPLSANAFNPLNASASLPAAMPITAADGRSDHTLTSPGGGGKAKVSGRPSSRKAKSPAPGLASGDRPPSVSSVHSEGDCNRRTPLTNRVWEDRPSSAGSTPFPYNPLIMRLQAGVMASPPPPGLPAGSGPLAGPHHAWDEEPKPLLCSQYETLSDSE
# [21] = target: Photoreceptor-specific nuclear receptor (Homo sapiens, UniProt Q9Y5X4); assay: NR2E3 inverse agonists, dose response, biochemical, TR-FRET (AID 463256); assay type: functional
# Cytochrome P450 2C19 = Cytochrome P450 2C19 (Homo sapiens, UniProt P33261); assay: Cytochrome panel assay with activity outcomes. Panel member name: p450-cyp2c19 Compounds with AC50 equal or less than 10 uM are considered active; assay type: functional; settings: read-out: AC50
# Chain of Cytochrome P450 2C19 (P33261 whole entry): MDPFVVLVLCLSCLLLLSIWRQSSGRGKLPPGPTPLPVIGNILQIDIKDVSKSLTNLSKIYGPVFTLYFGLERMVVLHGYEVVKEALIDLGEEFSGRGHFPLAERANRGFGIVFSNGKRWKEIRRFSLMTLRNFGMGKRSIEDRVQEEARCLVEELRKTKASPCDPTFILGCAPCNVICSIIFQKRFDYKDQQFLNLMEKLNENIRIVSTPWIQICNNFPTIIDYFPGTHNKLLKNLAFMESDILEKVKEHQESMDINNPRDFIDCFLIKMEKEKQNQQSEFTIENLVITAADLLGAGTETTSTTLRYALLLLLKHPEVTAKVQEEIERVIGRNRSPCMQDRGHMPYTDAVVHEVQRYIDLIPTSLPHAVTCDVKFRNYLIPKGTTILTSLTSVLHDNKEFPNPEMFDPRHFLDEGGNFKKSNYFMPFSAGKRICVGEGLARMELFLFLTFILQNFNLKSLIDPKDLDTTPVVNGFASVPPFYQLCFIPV
# Cytochrome P450 3A4 = Cytochrome P450 3A4 (Homo sapiens, UniProt P08684);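 further: CYP3A4 tested as one member of a cytochrome P450 panel screen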
# Chain of Cytochrome P450 3A4 (P08684 whole entry): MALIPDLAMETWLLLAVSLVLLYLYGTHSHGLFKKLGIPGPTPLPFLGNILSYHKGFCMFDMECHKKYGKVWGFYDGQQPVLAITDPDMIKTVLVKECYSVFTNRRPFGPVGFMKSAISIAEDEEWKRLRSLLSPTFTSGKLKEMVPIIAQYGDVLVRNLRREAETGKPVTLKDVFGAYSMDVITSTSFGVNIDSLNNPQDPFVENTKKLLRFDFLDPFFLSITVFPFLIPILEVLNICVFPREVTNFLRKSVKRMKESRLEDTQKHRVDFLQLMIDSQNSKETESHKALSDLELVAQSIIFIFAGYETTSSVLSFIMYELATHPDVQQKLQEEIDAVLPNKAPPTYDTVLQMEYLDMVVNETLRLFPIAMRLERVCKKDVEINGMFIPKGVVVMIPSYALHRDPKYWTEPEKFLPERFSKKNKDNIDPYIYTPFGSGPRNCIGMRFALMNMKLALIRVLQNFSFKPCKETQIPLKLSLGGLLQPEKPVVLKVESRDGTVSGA
# Cytochrome P450 2C9 = Cytochrome P450 2C9 (Homo sapiens, UniProt P11712)
# Chain of Cytochrome P450 2C9 (P11712 whole entry): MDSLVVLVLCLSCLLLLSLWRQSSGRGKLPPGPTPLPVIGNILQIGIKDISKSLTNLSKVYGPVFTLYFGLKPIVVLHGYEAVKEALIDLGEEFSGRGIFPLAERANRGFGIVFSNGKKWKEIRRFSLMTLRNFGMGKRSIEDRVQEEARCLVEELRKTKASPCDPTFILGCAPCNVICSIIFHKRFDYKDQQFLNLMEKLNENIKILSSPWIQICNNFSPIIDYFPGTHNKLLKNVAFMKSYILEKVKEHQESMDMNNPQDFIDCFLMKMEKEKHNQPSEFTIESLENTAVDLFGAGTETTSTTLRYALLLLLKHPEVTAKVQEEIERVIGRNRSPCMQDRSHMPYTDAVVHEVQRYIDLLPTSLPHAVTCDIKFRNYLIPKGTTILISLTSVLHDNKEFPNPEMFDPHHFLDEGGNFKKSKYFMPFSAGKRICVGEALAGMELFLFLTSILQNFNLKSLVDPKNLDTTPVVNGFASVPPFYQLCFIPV
# HEK293 [22] = assay: cells; settings: Homo sapiens
# HEK293 [23] = assay: cells; settings: Homo sapiens; remark: listed apart in the source
# [24] = target: T5, RNA-binding protein pos-1 (Caenorhabditis elegans, UniProt G5EF15); assay: inhibitors of POS-1/mex-3 RNA binding, dose response, biochemical, fluorescence polarization (AID 1964);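 further: purified POS-1 fused to maltose binding protein made in E. coli; potency of compounds blocking POS-1 binding to fluorescent RNA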
# T5 sequence (G5EF15 whole entry): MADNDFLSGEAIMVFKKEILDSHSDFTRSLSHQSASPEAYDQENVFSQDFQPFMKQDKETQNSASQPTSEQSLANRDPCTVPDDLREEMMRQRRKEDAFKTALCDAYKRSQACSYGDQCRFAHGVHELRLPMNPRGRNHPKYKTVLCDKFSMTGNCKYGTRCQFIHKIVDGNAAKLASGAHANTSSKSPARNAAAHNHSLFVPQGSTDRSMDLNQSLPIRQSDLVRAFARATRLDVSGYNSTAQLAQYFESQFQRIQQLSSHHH
# [25] = target: T6, Zinc finger protein mex-5 (Caenorhabditis elegans, UniProt Q9XUB2); assay: MEX-5/TCR-2 RNA interaction inhibitors, dose response, biochemical, C. elegans, fluorescence polarization (AID 1960)
# T6 sequence (Q9XUB2 whole entry): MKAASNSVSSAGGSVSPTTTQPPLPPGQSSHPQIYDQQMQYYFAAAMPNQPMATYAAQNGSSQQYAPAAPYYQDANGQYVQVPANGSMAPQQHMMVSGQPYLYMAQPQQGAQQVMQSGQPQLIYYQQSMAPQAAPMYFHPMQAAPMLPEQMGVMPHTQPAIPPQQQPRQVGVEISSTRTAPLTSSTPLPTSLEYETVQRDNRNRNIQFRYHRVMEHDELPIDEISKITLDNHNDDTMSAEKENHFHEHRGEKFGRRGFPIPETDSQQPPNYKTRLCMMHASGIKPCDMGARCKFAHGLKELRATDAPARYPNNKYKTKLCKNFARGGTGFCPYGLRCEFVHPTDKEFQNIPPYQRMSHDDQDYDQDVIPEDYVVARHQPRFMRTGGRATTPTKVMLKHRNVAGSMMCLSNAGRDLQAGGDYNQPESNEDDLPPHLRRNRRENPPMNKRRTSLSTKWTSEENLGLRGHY
# Ephrin type-A receptor 4 = Ephrin type-A receptor 4 (Mus musculus, UniProt Q03137); assay: inhibitors of EphA4 binding to KYL peptide, primary screen, biochemical, colorimetric, mouse EphA4 (AID 689); assay type: functional
# [26] = target: Voltage-dependent T-type calcium channel subunit alpha-1H (Homo sapiens, UniProt O95180); assay type: functional;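 further: channel activity triggered by adding a high calcium stimulation buffer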
# [27] = HEp-2 cell cytotoxicity, dose response, cytotoxicity control for RSV inhibitor project, HTS (AID 2410); assay type: functional; settings: human respiratory syncytial virus
# [28] = THP-1 cell cytotoxicity, dose response, cytotoxicity control for non-replicating M. tuberculosis project (AID 489025); assay type: functional
# [29] = Vero E6 cell cytotoxicity, dose response, cytotoxicity control for non-replicating M. tuberculosis project, secondary assay (AID 492998); assay type: functional, VeroE6; settings: Vero C1008
# cells [30] = assay type: functional
# [31] = inhibitors of intracellular T. cruzi replication, confirmation, NIH3T3 host cells, beta-gal luminescence (AID 2044); assay type: functional, cell-based;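 further: intracellular parasites grown in NIH/3T3 mouse fibroblasts as host cells; luminescent beta-galactosidase reporter signal from transgenic T. cruzi replicating inside host cells; inhibitors lower the luminescence signal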
# [32] = cytotoxicity toward NIH3T3 fibroblasts, dose response, counter-screen, cell-based, ATP luminescence, mouse fibroblasts (AID 2010); assay type: functional;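 further: cells exposed to compound for about 90 hours before reading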
structure (smiles),measurement,setting,value
CCn1c(SCC(=O)O)nc2sc3c(c2c1=O)CCC3,IC50,[1],1.29 µM (active)
same,IC50,Bcl-2-like protein 10,8.5 µM (active)
same,IC50,Bcl-2-related protein A1,14.5 µM (active)
same,IC50,[2],> 10 µM (not active)
same,IC50,[3],17.5 µM (active)
same,IC50,[4],40.8 µM (active)
C[C@@H](O)C#Cc1ccc2c(c1)O[C@@H](CN(C)Cc1ccc(-c3ccc(Cl)cc3)cc1)[C@@H](C)CN([C@@H](C)CO)S2(=O)=O,AC50,[5],1.26 µM (active)
same,AC50,[6],33.4 µM (active)
same,AC50,[7],1.29 µM (active)
CCc1ccccc1NC(=O)CN(C)Cc1nc(N)nc(Nc2ccccc2C)n1,IC50,[1],> 100 µM (not active)
Cc1ccc(-c2nc3ccccc3o2)cc1NC(=S)NC(=O)/C=C/c1ccco1,CC50,[8],32.9 µM (active)
CO[C@@H]1CN(C)C(=O)c2ccc(NC(=O)C3CC3)cc2OC[C@@H](C)N(Cc2cccc(F)c2)C[C@H]1C,AC50,[9],6.86 µM (active)
same,AC50,[10],> 100 µM (inactive)
same,AC50,[11],2.98 µM (active)
same,AC50,[12],0.664 µM (active)
same,AC50,[13],4.29 µM (active)
same,AC50,[14],3.64 µM (active)
C/C=C/c1ccc([C@H]2[C@@H](C#N)N(C(=O)NC3CCCC3)[C@@H]2CO)cc1,AC50,[9],15.4 µM (active)
same,AC50,[11],1.02 µM (active)
same,AC50,[12],0.4 µM (active)
same,AC50,[13],0.719 µM (active)
same,AC50,[14],0.626 µM (active)
O=C(Nc1ccc(O)c2c(=O)cc(-c3cccc(Cl)c3)oc12)c1cccc(Cl)c1,EC50,[15],> 120 µM (not active)
same,EC50,[16],> 120 µM (not active)
same,CC50,Vero,0.83 µM (active)
same,EC50,[17],10.2 µM (active)
N#Cc1nc(Cc2cccc3ccccc23)oc1NCc1ccc(F)cc1,CC50,[18],> 40 µM (active)
Cc1cccc2nc(COc3ccc(Cl)c4cccnc34)cn12,IC50,cells [19],33.2 µM (active)
O=C(CN1CCN(S(=O)(=O)c2ccc(Cl)s2)CC1)NCc1ccc(Cl)cc1,CC50,[18],15.1 µM (active)
c1ccc(N2CCN(Cc3nc4ccccc4[nH]3)CC2)nc1 [ABT-724],IC50,cells [19],24 µM (active)
CCOc1ccc(C(=O)Nc2ccc(NC(=O)c3ccco3)c(Cl)c2)cc1Br,IC50,[20],> 39.8 µM (not active)
same,IC50,[21],> 39.8 µM (not active)
same,AC50,Cytochrome P450 2C19,0.398 µM (inconclusive)
same,AC50,Cytochrome P450 3A4,22.4 µM (inconclusive)
same,AC50,Cytochrome P450 2C9,0.562 µM (inconclusive)
same,EC50,HEK293 [22],> 59.7 µM (inactive)
same,EC50,HEK293 [23],> 59.7 µM (inactive)
Cc1ccc2cc(/C=C3\N=C(c4ccccc4)OC3=O)c(N3CCOCC3)nc2c1,EC50,[24],> 300 µM (not active)
same,EC50,[25],> 300 µM (inconclusive)
same,IC50,Ephrin type-A receptor 4,1.54 µM (active)
same,EC50,[26],10.8 µM (active)
NCCOc1ccc(C23CC4CC(CC(C4)C2)C3)cc1,CC50,[27],13.1 µM (active)
same,CC50,Vero,10.7 µM (active)
same,CC50,[28],11.4 µM (active)
same,CC50,[29],> 20 µM (active)
same,IC50,cells [30],23.4 µM (active)
CCC1Nc2ncnc(N3CCN(c4ccccc4)CC3)c2N(Cc2ccc(Br)cc2)C1=O (centres undefined),CC50,[8],> 40 µM (active)
same,EC50,[31],1.59 µM (active)
same,EC50,[32],> 60 µM (not active)
